Measured values as given in patent publication US8748370B2, “Peptide derivatives for treatment, prevention or alleviation of a condition associated with bone loss or low bone density or to inhibit osteoclast differentiation and stimulation” (Strongbone AB, priority 2009, dated 2014).
Square brackets hold non-standard residues; d marks the D form. Peptide text beside a SMILES is read from it. * marks the point of attachment. Agmatine = N=C(N)NCCCCN*; Cbz = O=C(OCc1ccccc1)*; azaGly = NNC(=O)O; BrAc = O=C(CBr)*; ClAc = O=C(CCl)*

What was measured:
Papain = target: T1, Papain (Carica papaya, UniProt P00784); assay: Papain inhibition (Ki); format: biochemical
T1 sequence (P00784 134-345): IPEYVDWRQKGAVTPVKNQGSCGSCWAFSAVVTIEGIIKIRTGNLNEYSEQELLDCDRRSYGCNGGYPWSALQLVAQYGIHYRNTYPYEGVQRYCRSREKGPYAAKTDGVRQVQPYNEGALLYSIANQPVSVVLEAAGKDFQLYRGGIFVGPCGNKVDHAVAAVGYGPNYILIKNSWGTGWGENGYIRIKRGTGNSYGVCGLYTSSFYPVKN

Cath K = target: T2, Cath K (Homo sapiens, UniProt P43235); assay: Cathepsin K inhibition (Ki); format: biochemical
T2 sequence (P43235 115-329): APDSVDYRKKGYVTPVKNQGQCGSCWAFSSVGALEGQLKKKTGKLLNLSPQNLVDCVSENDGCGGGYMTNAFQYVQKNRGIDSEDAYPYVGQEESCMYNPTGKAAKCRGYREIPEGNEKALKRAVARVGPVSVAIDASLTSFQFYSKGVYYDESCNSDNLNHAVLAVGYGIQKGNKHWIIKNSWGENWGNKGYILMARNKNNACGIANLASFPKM

Cath B = Cath B (Homo sapiens, UniProt P07858); assay: Cathepsin B inhibition (Ki); format: biochemical
[1] = system: purified bone marrow macrophages; assay: Osteoclast formation in bone marrow macrophage cultures stimulated with M-CSF and RANKL (TRAP+ multinucleated osteoclasts); format: cell-based; conditions: for Osteoclast formation (100% = M-CSF + RANKL): purified bone marrow macrophages stimulated with M-CSF and RANKL, trap+ multinucleated osteoclasts
Protocol: Highly purified BMMs were isolated according to Takeshita et al. (2000).
For osteoclastogenesis experiments, BMMs were seeded either on 0.8 cm^2 glass chamber slides or 0.32 cm^2 96-well plates at a density of 10^4 cells/cm^2 in a-MEM/10% FBS containing either 100 ng/ml M-CSF (controls) or 100 ng/ml M-CSF C50 ng/ml RANKL, with and without test compounds. After 4-5 days, with a change of medium after 3 days, the cultures were harvested and the cells fixed with acetone in citrate buffer/3% formaldehyde and subsequently stained for TRAP. The TRAP-positive cells with three or more nuclei were considered osteoclasts, and the number of multinucleated osteoclasts was counted (TRAP^+-MuOCL). […] Osteoclast formation caused by M-CSF and RANKL was abolished by OPG

spleen cells = assay: Osteoclast formation in spleen cell cultures (TRAP+ multinucleated osteoclasts); format: cell-based, mice; conditions: for Osteoclast formation in the presence of the substance: without M-CSF/RANKL stimulation
Protocol: Cells were obtained from spleens of 5- to 9-week-old mice. The spleens were dissected free of adhering tissues, and cells were released by rubbing the spleens against the bottom of a Petri dish, in which grooves had been made by a scalpel. Erythrocytes were lysed in red blood cell lysis buffer (0.16 MNH4Cl, 0.17 M Tris, pH7.65) and the remaining cells were seeded, at a cell density of 10^6 cells/cm2, on plastic coverslips placed in 24-well plates. The cells were cultured in 0.5 ml a-minimal essential medium (a-MEM) supplemented with 10% fetal bovine serum (FBS), L-glutamine (0.7 mM), 100 U/ml benzylpenicillin, […] and 100 […] sulphate. Cells were allowed to settle overnight in complete medium and thereafter the medium was changed and the experiment started. Osteoclast precursor cells were induced to proliferate and differentiate by the addition of M-CSF (25 ng/ml) and RANKL (100 ng/ml). To study the effect of the compounds on osteoclastogenesis, cells were grown in medium containing compounds at different concentrations, together with M-CSF and RANKL. Cells cultured in complete medium without M-CSF and RANKL were included in all experiments as a control. Medium was changed after 3 days. After 1-6 days, the cells were washed three times with PBS (pH 7.35) and fixed with acetone in citrate buffer/3% formaldehyde solution. Cells were then stained for tartrate-resistant acid phosphatase (TRAP) activity using the SigmaDiagnostics Acid Phosphatase Leukocyte staining kit and by following the manufacturer's instruction. Multinucleated (no. of nuclei >3), TRAP-positive cells were counted as osteoclasts (TRAPC-MuOCL).

Row | Ki (Cath K) | Ki (Cath B) | Ki (Papain) | Molecule | Osteoclast formation (100% = M-CSF + RANKL) ([1]; BMM #27 + #29 + #30 + #34) | other results
1 |  | 14 nM | 161 nM | COC(=O)C1OC1C(=O)NC(C(=O)NC(CC(C)C)C(=O)NCCCCNC(=N)N)C(C)C (stereo not drawn) [A-42, MeO-Eps-Val-Leu-Agm] | 0% | Cath K Ki (Cath K): inactive
2 |  |  | 340 nM | CC(C)C[C@H](NC(=O)[C@@H](NC(=O)[C@H](Br)Cc1ccccc1)C(C)C)C(=O)NCCCCNC(=N)N [A-16, BrPpr-Val-Leu-Agm] | 16% | Cath K Ki (Cath K): inactive; Cath B Ki (Cath B): inactive
3 |  |  |  | CC(C)CC(NC(=O)C(CCCNC(=N)N)NC(=O)OCc1ccccc1)C(=O)NC(CNC(=O)/C=C/c1ccncc1)C(C)C (stereo not drawn) [A-49, Z-Arg-Leu-NH—CH(iPr)—CH2—NH←4-Pac] | 0.2% | 
4 |  |  |  | CC(C)CC(NC(=O)C(CCCNC(=N)N)NC(=O)OCc1ccccc1)C(=O)NC(CNC(=O)/C=C/c1ccccc1)C(C)C (stereo not drawn) [A-20, Z-Arg-Leu-NH—CH(iPr)—CH2—NH←Cin] | 0% | Papain Ki (Papain): Inactive
5 | 13 nM | 1000 nM | 94 nM | CC(C)CC(NC(=O)C(NC(=O)CBr)C(C)C)C(=O)NCCCCNC(=N)N (stereo not drawn) [A-12, BrAc—Val-Leu-Agm] (BrAc-Val-Leu-Agmatine; configuration not given here) | 2% | 
6 | 160 nM | 3 nM | 23 nM | CCC(C)C(NC(=O)/C=C/S(=O)(=O)Cc1ccccc1)C(=O)N1CCCC1C(=O)O (stereo not drawn) [M-1, Bzsa-Ile-Pro-OH] | 14% | 
7 | 24 nM | 2 nM | 46 nM | CC(C)CC(NC(=O)C(NC(=O)/C=C/C(=O)c1ccccc1)C(C)C)C(=O)NCCCCNC(=N)N (stereo not drawn) [A-33, Bzac-Val-Leu-Agm] | 0% | 
8 | 14 nM | 228 nM | 1000 nM | CC(C)CC(NC(=O)CCCCNC(=N)N)C(=O)NC(CNC(=O)/C=C/S(=O)(=O)Cc1ccccc1)C(C)C (stereo not drawn) [A-54] | 1% | 
9 | 99 nM | 0.3 nM | 16 nM | CC(C)CC(NC(=O)C(NC(=O)C1OC1C(=O)c1ccccc1)C(C)C)C(=O)NCCCCNC(=N)N (single isomer, unassigned) [A-47] | 0% | 
10 | 14 nM | 360 nM | 93 nM | CC(C)CC(NC(=O)C(NC(=O)CCl)C(C)C)C(=O)NCCCCNC(=N)N (stereo not drawn) [A-11, ClAc—Val-Leu-Agm] (ClAc-Val-Leu-Agmatine; configuration not given here) | 1% | 
11 | 1 nM |  | 9 nM | CCC(C)C(NC(=O)NNC(=O)C(CCCNC(=N)N)NC(=O)C(CC(C)C)NC(=O)C(CCCNC(=N)N)NC(=O)OCc1ccccc1)C(=O)NC(C(=O)OC)C(C)C (stereo not drawn) [Z-RLR, Z-Arg-Leu-Arg-Agly-Ile-Val-OMe] (Cbz-RLR[azaGly]IV-OMe; configuration not given here) | 0% | 
12 |  |  |  | CC(C)CC(NC(=O)Cc1cc(=O)oc2cc(O)ccc12)C(=O)NC(CC(C)C)C(=O)NCCCCNC(=N)N [A-128, N-amidino-4-(7-hydroxy-4-coumarinacetyl-D-leucyl-L-leucylamino)butylamine] |  | Osteoclast formation (100% = M-CSF + RANKL) ([1]; BMM #141 and #142): 4%
13 |  |  |  | C=C1/C(=C\C=C2/CCC[C@]3(C)[C@@H]([C@H](C)CCCC(C)(C)O)CC[C@@H]23)C[C@@H](O)C[C@@H]1O [D3, 1.25(OH)2-vitamin D3, reference compound] |  | Osteoclast formation in the presence of the substance ([1]; BMM cultures): Osteoclasts were not formed; Osteoclast formation in the presence of the substance (spleen cells): No osteoclasts were formed
14 | 63 nM | 55 nM | 68 nM | CC(C)CC(NC(=O)C(NC(=O)C1OC1C(=O)c1ccccc1)C(C)C)C(=O)NCCCCNC(=N)N (single isomer, unassigned) [A-50] | 2% | 
15 |  |  |  | CC(C)CC(NC(=O)C(CCCNC(=N)N)NC(=O)OCc1ccccc1)C(=O)NC(C(=O)NC(Cc1ccccc1)C(N)=O)C(C)C (stereo not drawn) [A-59, Ppa-Arg-Leu-Val-Phe-NH2] (Cbz-RLVF-NH2; configuration not given here) | 0% | 
16 |  |  |  | CC(C)CC(NC(=O)CCCCNC(=N)N)C(=O)NC(CNC(=O)C(Cc1ccccc1)NC(=O)Cc1cc(=O)oc2cc(O)ccc12)C(C)C [A-107, (2S)-2-[N-(5-guanidinepentanoyl)-L-leucylamino]-1-[N-(7-hydroxy-4-coumarinylacetyl-L-phenylalanylamino)-3-methylbutane] |  | Osteoclast formation (100% = M-CSF + RANKL) ([1]; BMM #141 and #142): 0%
17 |  |  |  | CC(C)CC(NC(=O)/C=C/c1cccnc1)C(=O)NC(CC(C)C)C(=O)NCCCCNC(=N)N (stereo not drawn) [A-127, 3 Pac-DLeu-Leu-Agm] |  | Osteoclast formation (100% = M-CSF + RANKL) ([1]; BMM #141 and #142): 16%
18 |  |  |  | PTH (protein, UniProt P01270 32-115, looked up, Parathyroid hormone, PTH, used to show the lack of stromal cells in the cultures) Parathyroid hormone: SVSEIQLMHNLGKHLNSMERVEWLRKKLQDVHNFVALGAPLAPRDAGSQRPRKKEDNVLVESHEKSLGEADKADVNVLTKAKSQ |  | Osteoclast formation in the presence of the substance ([1]; BMM cultures): Osteoclasts were not formed; Osteoclast formation in the presence of the substance (spleen cells): No osteoclasts were formed
19 |  |  |  | Cystatin C (protein, UniProt P01034 27-146, looked up) Cystatin-C: SSPGKPPRLVGGPMDASVEEEGVRRALDFAVGEYNKASNDMYHSRALQVVRARKQIVAGVNYFLDVELGRTTCTKTQPNLDNCPFHDQPHLKRKAFCSFQIYAVPWQGTMTLSKSTCQDA |  | Osteoclast formation (100% = M-CSF + RANKL) ([1]; BMM #141 and #142): 0%
20 |  |  |  | osteoprotegerin (protein, UniProt O00300 22-401, looked up, osteoprotegerin (OPG), abolishes M-CSF/RANKL-stimulated osteoclast formation) Tumor necrosis factor …: ETFPPKYLHYDEETSHQLLCDKCPPGTYLKQHCTAKWKTVCAPCPDHYYTDSWHTSDECLYCSPVCKELQYVKQECNRTHNRVCECKEGRYLEIEFCLKHRSCPPGFGVVQAGTPERNTVCKRCPDGFFSNETSSKAPCRKHTNCSVFGLLLTQKGNATHDNICSGNSESTQKCGIDVTLCEEAFFRFAVPTKFTPNWLSVLVDNLPGTKVNAESVERIKRQHSSQEQTFQLLKLWKHQNKDQDIVKKIIQDIDLCENSVQRHIGHANLTFEQLRSLMESLPGKKVGAEDIEKTIKACKPSDQILKLLSLWRIKNGDQDTLKGLMHALKHSKTYHFPKTVTQSLKKTIRFLHSFTMYKLYQKLFLEMIGNQVQSVKISCL |  | Effect on osteoclast formation caused by M-CSF and RANKL ([1]; BMM cultures, M-CSF and RANKL): abolished; Effect on stimulation of osteoclast formation caused by M-CSF and RANKL (spleen cells; M-CSF and RANKL): abolished

Row | Molecule | Ki (Cath K) | Ki (Cath B) | Ki (Papain) | Osteoclast formation (100% = M-CSF + RANKL) ([1]; BMM #27 + #29 + #30 + #34) | other results
21 | CC(C)CC(NC(=O)C(NC(=O)/C=C/S(=O)(=O)Cc1ccccc1)C(C)C)C(=O)NCCCCNC(=N)N (stereo not drawn) [A-25, Bzsa-Val-Leu-Agm] | 42.2 nM | 8.1 nM |  | 1% | Papain Ki (Papain): Inactive
